Measured values as given in publication PMC10620772, “Design, synthesis, and biological evaluation of new pyrimidine-5-carbonitrile derivatives as novel anti-cancer, dual EGFR^WT/COX-2 inhibitors with docking studies” (RSC Advances, 2023).

Columns and labels:
Assay in all cases: NCI60 antitumor screening
Format in all cases: cell-based, human
[1] = system: UACC-62; settings: five-dose
[2] = system: NCI-H460
[3] = system: SK-MEL-5
[4] = system: SK-MEL-2; settings: Homo sapiens; 10 μM single dose; SK-MEL-2 (melanoma); read-out: growth inhibition percent (GI%)
[5] = system: MOLT-4
[6] = system: CCRF-CEM
[7] = system: HCT-15
[8] = system: OVCAR-5
[9] = system: BT-549
[10] = system: EKVX
[11] = system: OVCAR-4
[12] = system: HS 578T
[13] = system: UO-31; settings: Homo sapiens; 10 μM single dose; UO-31 (renal cancer); read-out: growth inhibition percent (GI%)
[14] = system: NCI-H23
[15] = system: SN12C
[16] = system: NCI-H322M
[17] = system: HCT-116
[18] = system: A498
[19] = system: M14
[20] = Homo sapiens, OVCAR-4, five-dose
[21] = Homo sapiens, NCI-H322M, five-dose

SMILES: N#Cc1c(-c2ccc(F)cc2)nc(SCc2ccccc2)nc1N1CCNCC1 [4e, 2-(Benzylthio)-4-(4-fluorophenyl)-6-(piperazin-1-yl) pyrimidine-5-carbonitrile]
- TGI [1]: 28.20 µM
- GI50 ([2]; Homo sapiens, NCI-H460, five-dose): 9.2 µM
- CC50 ([2]; Homo sapiens, NCI-H460, five-dose, read-out: LC50 (the source's name)): 53.9 µM
- inhibition at 10 µM ([2]; Homo sapiens, 10 μM single dose, NCI-H460 (non-small cell lung cancer), read-out: growth inhibition percent (GI%)): > 100%
- TGI ([2]; five-dose): 22.90 µM
- GI50 ([3]; Homo sapiens, SK-MEL-5, five-dose): 15.7 µM
- CC50 ([3]; Homo sapiens, SK-MEL-5, five-dose, read-out: LC50 (the source's name)): 54.5 µM
- inhibition at 10 µM ([3]; Homo sapiens, 10 μM single dose, SK-MEL-5 (melanoma), read-out: growth inhibition percent (GI%)): > 100%
- TGI ([3]; five-dose): 29.20 µM
- inhibition at 10 µM [4]: > 100%
- GI50 ([5]; Homo sapiens, MOLT-4, five-dose): 7.07 µM
- CC50 ([5]; Homo sapiens, MOLT-4, five-dose, read-out: LC50 (the source's name)): 52.7 µM
- inhibition at 10 µM ([5]; Homo sapiens, 10 μM single dose, MOLT-4 (leukaemia), read-out: growth inhibition percent (GI%)): > 100%
- TGI ([5]; five-dose): 21.20 µM
- GI50 ([6]; Homo sapiens, CCRF-CEM, five-dose): 13.9 µM
- CC50 ([6]; Homo sapiens, CCRF-CEM, five-dose, read-out: LC50 (the source's name)): 69 µM
- inhibition at 10 µM ([6]; Homo sapiens, 10 μM single dose, CCRF-CEM (leukaemia), read-out: growth inhibition percent (GI%)): > 100%
- TGI ([6]; five-dose): 31.00 µM
- GI50 ([7]; Homo sapiens, HCT-15, five-dose): 5.05 µM
- CC50 ([7]; Homo sapiens, HCT-15, five-dose, read-out: LC50 (the source's name)): 43.8 µM
- inhibition at 10 µM ([7]; Homo sapiens, 10 μM single dose, HCT-15 (colon cancer), read-out: growth inhibition percent (GI%)): > 100%
- TGI ([7]; five-dose): 17.50 µM
- GI50 ([8]; Homo sapiens, OVCAR-5, five-dose): 14.1 µM
- CC50 ([8]; Homo sapiens, OVCAR-5, five-dose, read-out: LC50 (the source's name)): 54.2 µM
- inhibition at 10 µM ([8]; Homo sapiens, 10 μM single dose, OVCAR-5 (ovarian cancer), read-out: growth inhibition percent (GI%)): > 100%
- TGI ([8]; five-dose): 27.60 µM
- GI50 ([9]; Homo sapiens, BT-549, five-dose): 13 µM
- CC50 ([9]; Homo sapiens, BT-549, five-dose, read-out: LC50 (the source's name)): 53.6 µM
- inhibition at 10 µM ([9]; Homo sapiens, 10 μM single dose, BT-549 (breast cancer), read-out: growth inhibition percent (GI%)): > 100%
- TGI ([9]; five-dose): 26.40 µM
- GI50 ([10]; Homo sapiens, EKVX, five-dose): 12 µM
- LC50 ([10]; Homo sapiens, EKVX, five-dose): 51 µM
- inhibition at 10 µM ([10]; Homo sapiens, 10 μM single dose, EKVX (non-small cell lung cancer), read-out: growth inhibition percent (GI%)): > 100%
- TGI ([10]; five-dose): 24.80 µM
- GI50 [11, 20]: 15.7 µM
- LC50 (lethal concentration, 50% cell kill) [11, 20]: 74.7 µM
- inhibition at 10 µM ([11]; Homo sapiens, 10 μM single dose, OVCAR-4 (ovarian cancer), read-out: growth inhibition percent (GI%)): > 100%
- TGI ([11]; five-dose): 34.20 µM
- GI50 ([12]; Homo sapiens, Hs-578T, five-dose): 14.1 µM
- CC50 ([12]; Homo sapiens, Hs-578T, five-dose, read-out: LC50 (the source's name)): 72.7 µM
- inhibition at 10 µM ([12]; Homo sapiens, 10 μM single dose, HS 578T (breast cancer), read-out: growth inhibition percent (GI%)): > 100%
- TGI ([12]; five-dose): 32.00 µM
- inhibition at 10 µM [13]: > 100%
- GI50 ([14]; Homo sapiens, NCI-H23, five-dose): 15.1 µM
- CC50 ([14]; Homo sapiens, NCI-H23, five-dose, read-out: LC50 (the source's name)): 56.5 µM
- inhibition at 10 µM ([14]; Homo sapiens, 10 μM single dose, NCI-H23 (non-small cell lung cancer), read-out: growth inhibition percent (GI%)): > 100%
- TGI ([14]; five-dose): 29.30 µM
- GI50 ([15]; Homo sapiens, SN12C, five-dose): 13.8 µM
- CC50 ([15]; Homo sapiens, SN12C, five-dose, read-out: LC50 (the source's name)): 53.8 µM
- inhibition at 10 µM ([15]; Homo sapiens, 10 μM single dose, SN12C (renal cancer), read-out: growth inhibition percent (GI%)): > 100%
- TGI ([15]; five-dose): 27.20 µM
- GI50 [16, 21]: 14.3 µM
- LC50 (50% lethal concentration) [16, 21]: 54.2 µM
- inhibition at 10 µM ([16]; Homo sapiens, 10 μM single dose, NCI-H322M (non-small cell lung cancer), read-out: growth inhibition percent (GI%)): > 100%
- TGI ([16]; five-dose): 27.90 µM
- GI50 ([17]; Homo sapiens, HCT-116, five-dose): 3.51 µM
- CC50 ([17]; Homo sapiens, HCT-116, five-dose, read-out: LC50 (the source's name)): 38.1 µM
- inhibition at 10 µM ([17]; Homo sapiens, 10 μM single dose, HCT-116 (colon cancer), read-out: growth inhibition percent (GI%)): > 100%
- TGI ([17]; five-dose): 11.60 µM
- GI50 ([18]; Homo sapiens, A498, five-dose): 13.1 µM
- LC50 ([18]; Homo sapiens, A498, five-dose): 56.9 µM
- inhibition at 10 µM ([18]; Homo sapiens, 10 μM single dose, A498 (renal cancer), read-out: growth inhibition percent (GI%)): > 100%
- TGI ([18]; five-dose): 27.30 µM
- GI50 ([19]; Homo sapiens, M14, five-dose): 12 µM
- CC50 ([19]; Homo sapiens, M14, five-dose, read-out: LC50 (the source's name)): 51.4 µM
- inhibition at 10 µM ([19]; Homo sapiens, 10 μM single dose, M14 (melanoma), read-out: growth inhibition percent (GI%)): > 100%
- TGI ([19]; five-dose): 24.80 µM
